These results are taken from patent US10889620B2, “Solid state forms of linaclotide” (NOVETIDE LTD., priority 2015, dated 2021).

SMILES strings stand for the structures. Bridge positions count the residues as written; N and C are the ends. Peptide text beside a SMILES is read from it.

The conditions of data set [1]: storage for 3 months; 40° C. and 75% relative humidity; from U.S. Pat. No. 8,222,201, Example 3, Table 13; cited from earlier work.
The nature of data set [2]: Stability test of solid Linaclotide forms, storage in sealed HDPE bottles at 40° C. and 75% relative humidity, hydrolysis product content. Conditions: sealed 45 cc. HDPE bottles. The class given is physicochemical. The protocol: Linaclotide Form III according to the present invention was subjected to a stability test in accordance with U.S. Pat. No. 8,222,201, Example 3 (storage in sealed 45 cc. high density polyethylene bottles at 40° C. and 75% relative humidity).

Data set [3] can be described thus: Stability of Linaclotide solutions with and without ethanol, % multimers by HPLC-SEC. The class given is physicochemical. Particulars: RT, sealed vials. The protocol: Solutions of Linaclotide in: (A): a 1:1 mixture of 0.2% AcOH: ACN or (B): a 1:1:9.5 mixture of 0.2% AcOH:ACN:EtOH, were stored for 12 days at room temperature (RT) in sealed vials. The solutions were analysed by (HPLC-size exclusion chromatography) (HPLC-SEC), for % multimers (the major degradants present) content (see table below):
The results are graphically represented in FIG. 6.

Consider `C[C@@H]1NC(=O)[C@@H]2CCCN2C(=O)[C@H](CC(N)=O)NC(=O)[C@@H]2CSSC[C@H](N)C(=O)N[C@H]3CSSC[C@H](NC1=O)C(=O)N[C@@H]([C@@H](C)O)C(=O)NCC(=O)N[C@H](C(=O)N[C@@H](Cc1ccc(O)cc1)C(=O)O)CSSC[C@H](NC(=O)[C@H](Cc1ccc(O)cc1)NC(=O)[C@H](CCC(=O)O)NC3=O)C(=O)N2` [Form alpha, Linaclotide] (H-CCEYCCNPACTGCY-OH; disulfide 1-6, 2-10, 5-13), for which, in data set [1], the “hydrolysis product (L-Asp Linaclotide impurity) content” value was 5.7 wt %.
Take `C[C@@H]1NC(=O)[C@@H]2CCCN2C(=O)[C@H](CC(N)=O)NC(=O)[C@@H]2CSSC[C@H](N)C(=O)N[C@H]3CSSC[C@H](NC1=O)C(=O)N[C@@H]([C@@H](C)O)C(=O)NCC(=O)N[C@H](C(=O)N[C@@H](Cc1ccc(O)cc1)C(=O)O)CSSC[C@H](NC(=O)[C@H](Cc1ccc(O)cc1)NC(=O)[C@H](CCC(=O)O)NC3=O)C(=O)N2` [Linaclotide Form III, Linaclotide] (H-CCEYCCNPACTGCY-OH; disulfide 1-6, 2-10, 5-13): the entries for the “Linaclotide hydrolysis product (L-Asp Linaclotide impurity) content” value in data set [2] (after 4 weeks) and in data set [2] (extrapolated to 3 months) were 0.22% and 0.45 wt %, respectively.
Consider `C[C@@H]1NC(=O)[C@@H]2CCCN2C(=O)[C@H](CC(N)=O)NC(=O)[C@@H]2CSSC[C@H](N)C(=O)N[C@H]3CSSC[C@H](NC1=O)C(=O)N[C@@H]([C@@H](C)O)C(=O)NCC(=O)N[C@H](C(=O)N[C@@H](Cc1ccc(O)cc1)C(=O)O)CSSC[C@H](NC(=O)[C@H](Cc1ccc(O)cc1)NC(=O)[C@H](CCC(=O)O)NC3=O)C(=O)N2` [Linaclotide] (H-CCEYCCNPACTGCY-OH; disulfide 1-6, 2-10, 5-13), for which the “% Multimers according to HPLC-SEC method” value in data set [3] (solution (A) without EtOH: 1:1 0.2% AcOH:ACN, Day 0) is on record as 1.72%; in data set [3] (solution (A) without EtOH: 1:1 0.2% AcOH:ACN, Day 1) it was 1.87%; in data set [3] (solution (A) without EtOH: 1:1 0.2% AcOH:ACN, Day 2), 1.70%; in data set [3] (solution (A) without EtOH: 1:1 0.2% AcOH:ACN, Day 5), 3.05%; in data set [3] (solution (A) without EtOH: 1:1 0.2% AcOH:ACN, Day 6), 3.75%; in data set [3] (solution (A) without EtOH: 1:1 0.2% AcOH:ACN, Day 7) it was 3.83%. In addition, the “% Multimers according to HPLC-SEC method” value in data set [3] (solution (A) without EtOH: 1:1 0.2% AcOH:ACN, Day 8) was found to be 4.61%; in data set [3] (solution (A) without EtOH: 1:1 0.2% AcOH:ACN, Day 11), 6.47%; in data set [3] (solution (A) without EtOH: 1:1 0.2% AcOH:ACN, Day 12), 7.18%; in data set [3] (solution (B) with EtOH: 1:1:9.5 0.2% AcOH:ACN:EtOH, Day 0) it was 1.54%; in data set [3] (solution (B) with EtOH: 1:1:9.5 0.2% AcOH:ACN:EtOH, Day 1), 1.66%; in data set [3] (solution (B) with EtOH: 1:1:9.5 0.2% AcOH:ACN:EtOH, Day 2) it was 2.17%. Further, the “% Multimers according to HPLC-SEC method” value in data set [3] (solution (B) with EtOH: 1:1:9.5 0.2% AcOH:ACN:EtOH, Day 5) amounted to 2.34%; in data set [3] (solution (B) with EtOH: 1:1:9.5 0.2% AcOH:ACN:EtOH, Day 6), 3.22%; in data set [3] (solution (B) with EtOH: 1:1:9.5 0.2% AcOH:ACN:EtOH, Day 7), 3.54%; in data set [3] (solution (B) with EtOH: 1:1:9.5 0.2% AcOH:ACN:EtOH, Day 8) it was 3.64%; in data set [3] (solution (B) with EtOH: 1:1:9.5 0.2% AcOH:ACN:EtOH, Day 11) it was 3.62%; in data set [3] (solution (B) with EtOH: 1:1:9.5 0.2% AcOH:ACN:EtOH, Day 12), 4.88%.
